Where a name gives a salt, the structure may show the parent alone.

The first assay deals with Acinetobacter baumannii ATCC17978. The experiment in a line: Minimal Inhibitory Concentration (MIC) assay. The assay is classed as cell-based. Conditions: Acinetobacter baumannii ATCC17978, CAMHB medium, 20 hours at 35±2° C., visual reading; read-out: MIC AB. ATCC17978. How it is done:
Minimal Inhibitory Concentration Protocol (MIC) Assay:
Table 2 provides the in vitro potency of the compounds of present invention obtained against the strain Acinetobacter baumannii ATCC17978, which was assessed by an MIC (Minimal Inhibitory Concentration) assay as follows.
Test compounds were prepared from 10 mM DMSO stock solutions. The top dose was diluted from 10 mM to 2.5 mM by DMSO, followed by serial 2-fold 11 points dilutions in DMSO in a master plate (Greiner, Cat No: 651201). 2 μL compounds were transferred from the master plate into a new 96-well assay plate (Costar, 3599).
The growth medium […] Mueller Hinton Broth (CAMHIB) was prepared by adding 22 g powder (BD, 212322) in 1 L purified water, autoclaved, and supplemented with sterilized CaCl2 (20 mg per liter) and MgCl2 (10 mg per liter).
Vials of each of the test microorganisms were maintained frozen in the vapor phase of a liquid nitrogen freezer. Took out the bacterial strain ATCC 17978 from liquid nitrogen freezer, thawed it at room temperature, and diluted the bacterial in the CAMHB medium to achieve a final inoculum of 2×10^5 CFU/mL. 98 μL of the adjusted bacteria suspension was dispensed to the assay plate and pipetted 5 times.
Then the assay plates were incubated for 20 hours at 35±2° C. in ambient air with humidity. Following incubation, MIC […] value, the lowest concentration of drug that inhibits visible growth of the microorganism, was recorded by visual judgment of bacterial growth through magnification mirror of MIC reader, and the assay plates were photographed with Qcount system as image raw data. Meanwhile, the D600 of assay plates was recorded with SpectraMax Plus384 as GD raw data.
Consider `Cc1c(-c2ccc(-c3cnc(C(=O)Nc4ccc(C(=O)N5CCN(C(=O)C6CC[N+](C)(C)CC6)CC5)c(Cl)c4)n3C)c(F)c2F)cnn1CC(=O)Nc1ccccn1` [Example G19, N-[3-chloro-4-[4-(1,1-dimethylpiperidin-1-ium-4-carbonyl)piperazine-1-carbonyl]phenyl]-5-[2,3-difluoro-4-[5-methyl-1-[2-oxo-2-(2-pyridylamino)ethyl]pyrazol-4-yl]phenyl]-1-methyl-imidazole-2-carboxamide; formate], for which the MIC was found to be 0.32 µM.

A further assay has as its system Acinetobacter baumannii ATCC17961. The experiment in a line: Antimicrobial susceptibility testing: 90% growth inhibitory concentration (IC90) determination. The format is cell-based. To be noted: Acinetobacter baumannii, ATCC17961, 16 h, 90% growth inhibitory concentration, Acinetobacter baumannii ATCC17961, Iso-Sensitest broth, OD 600 nm over 16 h; read-out: ATCC 17961 IC90. Summed up:
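A. baumannii ATCC17961 at ~5×10^5 CFU/ml in Iso-Sensitest broth exposed to 10-point twofold dilutions (e.g. 50–0.097 μM final), 35±2° C. OD600 read every 20 minutes over 16h; IC50 and IC90 derived from inhibition during logarithmic growth.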
For `Cc1nn(CCNC(=O)c2ccccn2)cc1-c1ccc(-c2cnc(C(=O)Nc3ccc(C(=O)N4CCN(C(=O)C5CC[N+](C)(C)CC5)CC4)c(Cl)c3)n2C)c(F)c1F` [Example H2, N-[2-[4-[4-[2-[[3-chloro-4-[4-(1,1-dimethylpiperidin-1-ium-4-carbonyl)piperazine-1-carbonyl]phenyl]carbamoyl]-3-methyl-imidazol-4-yl]-2,3-difluoro-phenyl]-3-methyl-pyrazol-1-yl]ethyl]pyridine-2-carboxamide; formate], the IC90 turned out to be 190 nM. As to `COc1cccc(CCn2cc(-c3ccc(-c4cnc(C(=O)Nc5ccc(C(=O)N6CCN(C(=O)C7CC[N+](C)(C)CC7)CC6)c(Cl)c5)n4C)c(F)c3F)c(C)n2)n1` [Example F54, N-[3-chloro-4-[4-(1,1-dimethylpiperidin-1-ium-4-carbonyl)piperazine-1-carbonyl]phenyl]-5-[2,3-difluoro-4-[1-[2-(6-methoxy-2-pyridyl)ethyl]-3-methyl-pyrazol-4-yl]phenyl]-1-methyl-imidazole-2-carboxamide; formate], the IC90 is 590 nM. With `Cn1c(-c2ccc(-c3c[nH]nc3-c3cn[nH]c3)c(F)c2F)cnc1C(=O)Nc1ccc(C(=O)N2CCN(C(=O)C3CC[N+](C)(C)CC3)CC2)c(Cl)c1` [Example F48, N-[3-chloro-4-[4-(1,1-dimethylpiperidin-1-ium-4-carbonyl)piperazine-1-carbonyl]phenyl]-5-[2,3-difluoro-4-[3-(1H-pyrazol-4-yl)-1H-pyrazol-4-yl]phenyl]-1-methyl-imidazole-2-carboxamide; formate], the IC90 was 470 nM. In the case of `Cc1nn(CCOC(F)F)c(C)c1-c1ccc(-c2cnc(C(=O)Nc3ccc(C(=O)N4CCN(C(=O)C5C[C@@H](O)C[N+]5(C)C)CC4)c(Cl)c3)n2C)c(F)c1F` (stereo partly drawn) [Example K2, N-[3-chloro-4-[4-[(4R)-4-hydroxy-1,1-dimethyl-pyrrolidin-1-ium-2-carbonyl]piperazine-1-carbonyl]phenyl]-5-[4-[1-2-(difluoromethoxy)ethyl]-3,5-dimethyl-pyrazol-4-yl]-2,3-difluoro-phenyl]-1-methyl-imidazole-2-carboxamide; formate], the IC90 worked out at 360 nM. With `Cn1cc(-c2n[nH]cc2-c2ccc(-c3cnc(C(=O)Nc4ccc(C(=O)N5CCN(C(=O)C6CC[N+](C)(C)CC6)CC5)c(Cl)c4)n3C)c(F)c2F)cn1` [Example F47, N-[3-chloro-4-[4-(1,1-dimethylpiperidin-1-ium-4-carbonyl)piperazine-1-carbonyl]phenyl]-5-[2,3-difluoro-4-[3-(1-methylpyrazol-4-yl)-1H-pyrazol-4-yl]phenyl]-1-methyl-imidazole-2-carboxamide; formate], the IC90 was determined as 530 nM.

`COCCn1ncc(-c2ccc(-c3cnc(C(=O)Nc4ccc(C(=O)N5CCN(C(=O)C6CCNCC6)CC5)c(Cl)c4)n3C)c(F)c2F)c1COC` [Example E13, N-[3-chloro-4-[4-(piperidine-4-carbonyl)piperazine-1-carbonyl]phenyl]-5-[2,3-difluoro-4-[1-(2-methoxyethyl)-5-(methoxymethyl)pyrazol-4-yl]phenyl]-1-methyl-imidazole-2-carboxamide; formic acid]: the IC90 stood at 380 nM.

Regarding `COc1cccc(Cn2cc(-c3ccc(-c4cnc(C(=O)Nc5ccc(C(=O)N6CCN(C(=O)C7CC[N+](C)(C)CC7)CC6)c(Cl)c5)n4C)c(F)c3F)c(C)n2)n1` [Example F55, N-[3-chloro-4-[4-(1,1-dimethylpiperidin-1-ium-4-carbonyl)piperazine-1-carbonyl]phenyl]-5-[2,3-difluoro-4-[1-[(6-methoxy-2-pyridyl)methyl]-3-methyl-pyrazol-4-yl]phenyl]-1-methyl-imidazole-2-carboxamide; formate], the IC90 is 270 nM. Same read-out and setting: the figure for `Cn1c(-c2ccc(-c3c[nH]nc3-c3cccc(F)c3)c(F)c2F)cnc1C(=O)Nc1ccc(C(=O)N2CCN(C(=O)C3CC[N+](C)(C)CC3)CC2)c(Cl)c1` [Example F45, N-[3-chloro-4-[4-(1,1-dimethylpiperidin-1-ium-4-carbonyl)piperazine-1-carbonyl]phenyl]-5-[2,3-difluoro-4-[3-(3-fluorophenyl)-1H-pyrazol-4-yl]phenyl]-1-methyl-imidazole-2-carboxamide; formate] is 310 nM; for `Cc1nn(CC(=O)NC23CC(C2)C3)cc1-c1ccc(-c2cnc(C(=O)Nc3ccc(C(=O)N4CCN(C(=O)C5CC[N+](C)(C)CC5)CC4)c(Cl)c3)n2C)c(F)c1F` [Example G3, 5-[4-[1-[2-(1-bicyclo[1.1.1]pentanylamino)-2-oxo-ethyl]-3-methyl-pyrazol-4-yl]-2,3-difluoro-phenyl]-N-[3-chloro-4-[4-(1,1-dimethylpiperidin-1-ium-4-carbonyl)piperazine-1-carbonyl]phenyl]-1-methyl-imidazole-2-carboxamide; formate] it is 100 nM. The same measure, in the same setting: for `Cc1nn(CC2CCOCC2)cc1-c1ccc(-c2cnc(C(=O)Nc3ccc(C(=O)N4CCN(C(=O)C5CC[N+](C)(C)CC5)CC4)c(Cl)c3)n2C)c(F)c1F` [Example F39, N-[3-chloro-4-[4-(1,1-dimethylpiperidin-1-ium-4-carbonyl)piperazine-1-carbonyl]phenyl]-5-[2,3-difluoro-4-[3-methyl-1-(tetrahydropyran-4-ylmethyl)pyrazol-4-yl]phenyl]-1-methyl-imidazole-2-carboxamide; formate] the value was 340 nM; for `Cc1n[nH]c(C)c1-c1ccc(-c2cnc(C(=O)Nc3ccc(C(=O)N4CCN(C(=O)CN(C)C)CC4)c(Cl)c3)n2C)cc1` [Example E16, N-[3-chloro-4-[4-[2-(dimethylamino)acetyl]piperazine-1-carbonyl]phenyl]-5-[4-(3,5-dimethyl-1H-pyrazol-4-yl)phenyl]-1-methyl-imidazole-2-carboxamide], 230 nM. Take `COCCn1ncc(-c2ccc(-c3cnc(C(=O)Nc4ccc(C(=O)N5CCN(C(=O)C[C@@H]6CC[N+](C)(C)C6)CC5)c(Cl)c4)n3C)c(F)c2F)c1C` [Example A5, N-[3-chloro-4-[4-[2-[(3S)-1,1-dimethylpyrrolidin-1-ium-3-yl]acetyl]piperazine-1-carbonyl]phenyl]-5-[2,3-difluoro-4-[1-(2-methoxyethyl)-5-methyl-pyrazol-4-yl]phenyl]-1-methyl-imidazole-2-carboxamide; formate]: the IC90 was found to be 55 nM. With `COCCn1ncc(-c2ccc(-c3cnc(C(=O)Nc4ccc(C(=O)N5CCN(C(=O)N6CC[N+](CC(=O)O)(CC7CNC7)CC6)CC5)c(Cl)c4)n3C)c(F)c2F)c1C` [Example B38, 2-[1-(azetidin-3-ylmethyl)-4-[4-[2-chloro-4-[[5-[2,3-difluoro-4-[1-(2-methoxyethyl)-5-methyl-pyrazol-4-yl]phenyl]-1-methyl-imidazole-2-carbonyl]amino]benzoyl]piperazine-1-carbonyl]piperazin-1-ium-1-yl]acetic acid; formate], the IC90 was 300 nM. The same measure, in the same setting: for `COCCn1ncc(-c2ccc(-c3cnc(C(=O)Nc4ccc(C(=O)N5CCN(C(=O)[C@@H]6C[C@@H](O)CN6)CC5)c(Cl)c4)n3C)c(F)c2F)c1C` [Example E9, N-[3-chloro-4-[4-[(2S,4R)-4-hydroxypyrrolidine-2-carbonyl]piperazine-1-carbonyl]phenyl]-5-[2,3-difluoro-4-[1-(2-methoxyethyl)-5-methyl-pyrazol-4-yl]phenyl]-1-methyl-imidazole-2-carboxamide; 2,2,2-trifluoroacetic acid] the value was 65 nM.

The assay is the same for the next values; noted with them: Acinetobacter baumannii, ATCC17961, 16 h, read-out: ATCC 17961 IC90.
Regarding `Cc1n[nH]c(C)c1-c1ccc(-c2cnc(C(=O)Nc3ccc(C(=O)N4CCN(C(=O)[C@@H]5C[C@@H](O)C[N+]5(C)C)CC4)c(Cl)c3)n2C)c(F)c1F` [Example D43, N-[3-chloro-4-[4-[(2S,4R)-4-hydroxy-1,1-dimethyl-pyrrolidin-1-ium-2-carbonyl]piperazine-1-carbonyl]phenyl]-5-[4-(3,5-dimethyl-1H-pyrazol-4-yl)-2,3-difluoro-phenyl]-1-methyl-imidazole-2-carboxamide; formate], the IC90 was found to be 810 nM.

For the origin of these results see patent publication US12421211B2, “Heterocyclic compounds” (Hoffmann-La Roche Inc., priority 2021, dated 2025).
